According to patent US20260102383A1, “LPAR1 Inhibitors” (AbbVie Inc., priority 2024, published 2026):
Like-named read-outs stand apart in the source and are kept apart here.

Biological target: T1, human LPAR1 (Homo sapiens, UniProt Q92633)
T1 construct: host or cells: TangoEDG2-bla U2OS cells
Test: Arrestin assay (Arrestin Reporter EDG2-bla U2OS), inhibition of LPA-stimulated signal
Format: cell-based
Conditions: TangoEDG2-bla U2OS cells expressing human LPAR1, 0.25 μM LPA
Outline: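 TangoEDG2-bla U2OS cells (1×10^4/well, plated 18-20 h) were preincubated 1 h at 37 °C with compound (12-point, 3-fold, 10 μM to 0.00006 μM), then stimulated 3 h with 0.25 μM LPA final. LiveBLAzer FRET B/G 460/530 nm emission ratio gave % inhibition; IC50 from 4-parameter variable-slope fit.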

[1] = read-out: Arrestin Reporter EDG2-bla U2OS Human Merged IC50
[2] = read-out: Arrestin Reporter EDG2-bla U2OS Human IC50

T1 sequence (Q92633 whole entry): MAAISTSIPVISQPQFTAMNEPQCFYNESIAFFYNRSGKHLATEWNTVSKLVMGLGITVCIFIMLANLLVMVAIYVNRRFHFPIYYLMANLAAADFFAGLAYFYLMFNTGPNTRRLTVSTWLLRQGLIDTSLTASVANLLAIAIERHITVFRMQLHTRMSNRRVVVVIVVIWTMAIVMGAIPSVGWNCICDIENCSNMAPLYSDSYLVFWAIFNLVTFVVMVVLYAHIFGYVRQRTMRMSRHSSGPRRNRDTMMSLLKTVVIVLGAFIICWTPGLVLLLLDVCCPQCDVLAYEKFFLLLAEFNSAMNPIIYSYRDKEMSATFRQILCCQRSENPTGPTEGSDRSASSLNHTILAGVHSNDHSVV

`CC(C)c1ccnn1C1(C(=O)Nc2ccc(Cl)cc2OC(F)F)CCN(CC2(C(=O)O)CCN(C(=O)Oc3ccc(F)cc3)CC2)CC1` [Compound 10, 4-[[4-[[4-chloro-2-(difluoromethoxy)phenyl]carbamoyl]-4-(5-isopropylpyrazol-1-yl)-1-piperidyl]methyl]-1-(4-fluorophenoxy)carbonyl-piperidine-4-carboxylic acid] was tested, and the IC50 [1] was 7.53 nM.
Compound `CC(C)c1ccnn1C1(C(=O)Nc2ccc(Cl)cc2OC(F)F)CCN([C@H]2C[C@H](C(=O)O)C2)CC1` [Compound 62, (1r,3r)-3-[4-[[4-chloro-2-(difluoromethoxy)phenyl]carbamoyl]-4-(5-isopropylpyrazol-1-yl)-1-piperidyl]cyclobutanecarboxylic acid] has an IC50 [2] of 51.5 nM.
Work on `CC(C)c1ccnn1C1(C(=O)Nc2ccc(Cl)cc2OC(F)F)CCN(C[C@]2(C(=O)O)CC[C@@H](O)CC2)CC1` (single isomer, unassigned) [Compound 95, (1s,4s)-1-[[4-[[4-chloro-2-(difluoromethoxy)phenyl]carbamoyl]-4-(5-isopropylpyrazol-1-yl)-1-piperidyl]methyl]-4-hydroxy-cyclohexanecarboxylic acid] yielded an IC50 [1] of 11.7 nM.
Compound `COCC(CN1CCC(C(=O)Nc2ccc(Cl)cc2OC(F)F)(n2nccc2C(C)C)CC1)C(=O)O` (stereo not shown) [Compound 105, 2-[[4-[[4-chloro-2-(difluoromethoxy)phenyl]carbamoyl]-4-(5-isopropylpyrazol-1-yl)-1-piperidyl]methyl]-3-methoxy-propanoic acid] has an IC50 [1] of 26.9 nM.
`CC(C)c1c(F)cnn1C1(C(=O)Nc2ccc(Cl)cc2OC(F)F)CCN([C@H]2C[C@](C)(C(=O)O)C2)CC1` [Compound 212, (1r,3r)-3-[4-[[4-chloro-2-(difluoromethoxy)phenyl]carbamoyl]-4-(4-fluoro-5-isopropyl-pyrazol-1-yl)-1-piperidyl]-1-methyl-cyclobutanecarboxylic acid] showed an IC50 [1] of 46.3 nM.
In the case of `CC(C)c1ccnn1C1(C(=O)Nc2ccc(Cl)cc2OC(F)F)CCN(C[C@@H](C(=O)O)[C@H]2C[C@@H](C)O[C@@H](C)C2)CC1` [Compound 195, (25)-3-[4-[[4-chloro-2-(difluoromethoxy)phenyl]carbamoyl]-4-(5-isopropylpyrazol-1-yl)-1-piperidyl]-2-[(2R,4r,6S)-2,6-dimethyltetrahydropyran-4-yl]propanoic acid], the IC50 [1] is reported as 67.6 nM.
`COc1ccc([C@@H](CN2CCC(C(=O)Nc3ccc(Cl)cc3OC(F)F)(n3nccc3C(C)C)CC2)C(=O)O)cc1` [Compound 29, (2S)-3-[4-[[4-chloro-2-(difluoromethoxy)phenyl]carbamoyl]-4-(5-isopropylpyrazol-1-yl)-1-piperidyl]-2-(4-methoxyphenyl) propanoic acid] was tested, and the IC50 [1] was 4.75 nM.
Work on `CC(C)c1ccnn1C1(C(=O)Nc2ccc(Cl)cc2OC(F)F)CCN([C@H]2C[C@@](C)(C(=O)O)C2)CC1` [Compound 77, (1s,38)-3-[4-[[4-chloro-2-(difluoromethoxy)phenyl]carbamoyl]-4-(5-isopropylpyrazol-1-yl)-1-piperidyl]-1-methyl-cyclobutanecarboxylic acid] yielded an IC50 [2] of 43.6 nM.
`COCCC(CN1CCC(C(=O)Nc2ccc(Cl)cc2OC(F)F)(n2ncc(F)c2C(C)C)CC1)C(=O)O` (stereo not shown) [Compound 188, 2-[[4-[[4-chloro-2-(difluoromethoxy)phenyl]carbamoyl]-4-(4-fluoro-5-isopropyl-pyrazol-1-yl)-1-piperidyl]methyl]-4-methoxy-butanoic acid] was tested, and the IC50 [1] was 38.3 nM.
Work on `COC(=O)CC(=O)N1CCC(CN2CCC(C(=O)Nc3ccc(Cl)cc3OC(F)F)(n3nccc3C(C)C)CC2)(C(=O)O)CC1` [Compound 9, 4-[[4-[[4-chloro-2-(difluoromethoxy)phenyl]carbamoyl]-4-(5-isopropylpyrazol-1-yl)-1-piperidyl]methyl]-1-(3-methoxy-3-oxo-propanoyl)piperidine-4-carboxylic acid] yielded an IC50 [1] of 128 nM.
